Assay results as given in US7842695B2, “Substituted pyrazole compounds” (Merck Patent GmbH, priority 2003, dated 2010).

What follows are compounds tested against T1, 5 HT2C receptor (Homo sapiens, UniProt P28335) (assay: affinity to the 5 HT2C receptor).
T1 sequence (P28335 33-458): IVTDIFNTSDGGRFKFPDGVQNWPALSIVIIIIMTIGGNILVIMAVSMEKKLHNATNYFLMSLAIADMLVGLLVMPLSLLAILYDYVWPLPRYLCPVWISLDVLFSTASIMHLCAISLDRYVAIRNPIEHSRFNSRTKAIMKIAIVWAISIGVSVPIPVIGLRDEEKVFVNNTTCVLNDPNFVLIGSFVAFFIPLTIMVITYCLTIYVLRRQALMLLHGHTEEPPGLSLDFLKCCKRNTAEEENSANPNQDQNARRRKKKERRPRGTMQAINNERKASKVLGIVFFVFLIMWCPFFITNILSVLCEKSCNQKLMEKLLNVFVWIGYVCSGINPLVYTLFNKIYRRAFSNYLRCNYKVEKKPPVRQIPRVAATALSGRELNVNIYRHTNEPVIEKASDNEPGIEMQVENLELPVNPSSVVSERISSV
Type: binding
Compound `CN1CCN(Cc2cnn(-c3ccc(-c4ccc(F)cc4)cc3)c2-c2ccoc2)CC1` [Example 586, 1-[1-(4′-Fluorobiphenyl-4-yl)-5-furan-3-yl-1H-pyrazol-4-ylmethyl]-4-methylpiperazine] has an IC50 of 1 µM. `CN(C)C1CCN(Cc2cnn(-c3ccc(-c4ccc(F)cc4)cc3)c2-c2ccco2)C1` (stereo not drawn) [Example 537, {1-[1-(4′-Fluorobiphenyl-4-yl)-5-furan-2-yl-1H-pyrazol-4-ylmethyl]pyrrolidin-3-yl}dimethylamine] showed an IC50 of 0.62 µM. With `COc1ccc(-c2ccc(-n3ncc(CN4CCC(O)C4)c3-c3ccco3)cc2)cc1` (stereo not drawn) [Example 564, 1-[5-Furan-2-yl-1-(4′-methoxybiphenyl-4-yl)-1H-pyrazol-4-ylmethyl]pyrrolidin-3-ol] the IC50 was 0.63 µM. Work on `CN1CCN(Cc2cnn(-c3ccc(-c4ccc5c(c4)OCO5)cc3)c2-c2ccco2)CC1` [Example 550, 1-[1-(4-Benzo-1,3-dioxol-5-ylphenyl)-5-furan-2-yl-1H-pyrazol-4-ylmethyl]-4-methylpiperazine] yielded an IC50 of 0.17 µM. `COc1ccc(-c2ccc(-n3ncc(CN4CCN(C)CC4)c3-c3ccccc3F)cc2)cc1F` [Example 585, 1-[1-(3′-Fluoro-4′-methoxybiphenyl-4-yl)-5-(2-fluorophenyl)-1H-pyrazol-4-ylmethyl]-4-methylpiperazine] was tested, and the IC50 was 0.76 µM.

Each compound was assayed against 5-HT2A receptors (UniProt P14842) (assay: in-vitro affinity to 5-HT2A receptors, [3H]ketanserine displacement (Example A1)).
Type: binding
From the text: The 5-HT2A receptors are exposed both to [^3H]ketanserine (a substance known for its affinity to the receptor) and also to the test compound. The decrease in the affinity of [^3H]ketanserine to the receptor is an indication of the affinity of the test substance to the 5-HT2A receptor.
`CN1CCN(Cc2cnn(-c3ccc(-c4ccc(F)cc4)cc3)c2-c2ccoc2)CC1` [Example 586, 1-[1-(4′-Fluorobiphenyl-4-yl)-5-furan-3-yl-1H-pyrazol-4-ylmethyl]-4-methylpiperazine] was tested, and the IC50 was 0.019 µM. `CN(C)C1CCN(Cc2cnn(-c3ccc(-c4ccc(F)cc4)cc3)c2-c2ccco2)C1` (stereo not drawn) [Example 537, {1-[1-(4′-Fluorobiphenyl-4-yl)-5-furan-2-yl-1H-pyrazol-4-ylmethyl]pyrrolidin-3-yl}dimethylamine] gave an IC50 of 0.0031 µM. In the case of `COc1ccc(-c2ccc(-n3ncc(CN4CCC(O)C4)c3-c3ccco3)cc2)cc1` (stereo not drawn) [Example 564, 1-[5-Furan-2-yl-1-(4′-methoxybiphenyl-4-yl)-1H-pyrazol-4-ylmethyl]pyrrolidin-3-ol], the IC50 is reported as 0.01 µM. With `CN1CCN(Cc2cnn(-c3ccc(-c4ccc5c(c4)OCO5)cc3)c2-c2ccco2)CC1` [Example 550, 1-[1-(4-Benzo-1,3-dioxol-5-ylphenyl)-5-furan-2-yl-1H-pyrazol-4-ylmethyl]-4-methylpiperazine] the IC50 was 0.0058 µM. With `COc1ccc(-c2ccc(-n3ncc(CN4CCN(C)CC4)c3-c3ccccc3F)cc2)cc1F` [Example 585, 1-[1-(3′-Fluoro-4′-methoxybiphenyl-4-yl)-5-(2-fluorophenyl)-1H-pyrazol-4-ylmethyl]-4-methylpiperazine] the IC50 was 0.019 µM. `OCCCCNCc1cnn(-c2ccc(-c3ccc(F)cc3)cc2)c1-c1ccco1` [Example 617, 4-{[1-(4′-Fluorobiphenyl-4-yl)-5-furan-2-yl-1H-pyrazol-4-ylmethyl]amino}butan-1-ol] was tested, and the IC50 was 0.032 µM. `Fc1ccccc1-c1c(CCN2CCOCC2)cnn1-c1ccc(-c2ccccc2)cc1` [Example 632, 4-{2-[1-Biphenyl-4-yl-5-(2-fluorophenyl)-1H-pyrazol-4-yl]ethyl}morpholine] showed an IC50 of 0.04 µM. Work on `COCCN1CCN(Cc2cnn(-c3ccc(-c4ccc(F)cc4)cc3)c2-c2cccc(OC)c2)CC1` [Example 685, 1-[1-(4′-Fluorobiphenyl-4-yl)-5-(3-methoxyphenyl)-1H-pyrazol-4-ylmethyl]-4-(2-methoxyethyl)piperazine] yielded an IC50 of 0.19 µM. `Fc1ccc(-c2ccc(-n3ncc(CN4CCN(CCN5CCCCC5)CC4)c3-c3cccc(Cl)c3)cc2)cc1` [Example 702, 1-[5-(3-Chlorophenyl)-1-(4′-fluorobiphenyl-4-yl)-1H-pyrazol-4-ylmethyl]-4-(2-piperidin-1-ylethyl)piperazine] was tested, and the IC50 was 0.47 µM. `CN(C)CCN1CCN(Cc2cnn(-c3ccc(-c4ccc(F)cc4)cc3)c2-c2cccc(Cl)c2)CC1` [Example 701, (2-{4-[5-(3-Chlorophenyl)-1-(4′-fluorobiphenyl-4-yl)-1H-pyrazol-4-ylmethyl]piperazin-1-yl}ethyl)dimethylamine] showed an IC50 of 0.47 µM. With `COc1ccc(-c2c(CN3CCN(C)CC3)cnn2-c2ccc(-c3ccc(F)cc3)cc2)cc1` [Example 671, 1-[1-(4′-Fluorobiphenyl-4-yl)-5-(4-methoxyphenyl)-1H-pyrazol-4-ylmethyl]-4-methylpiperazine] the IC50 was 0.1 µM. Work on `CC#Cc1ccc(-c2ccc(-n3ncc(CN4CCN(C)CC4)c3-c3ccccc3F)cc2)c(F)c1` [Example 667, 1-[5-(2-Fluorophenyl)-1-(2′-fluoro-4′-prop-1-ynylbiphenyl-4-yl)-1H-pyrazol-4-ylmethyl]-4-methylpiperazine] yielded an IC50 of 0.093 µM. `COCCN1CCN(Cc2cnn(-c3ccc(-c4ccc(F)cc4)cc3)c2-c2ccoc2)CC1` [Example 664, 1-[1-(4′-Fluorobiphenyl-4-yl)-5-furan-3-yl-1H-pyrazol-4-ylmethyl]-4-(2-methoxyethyl)piperazine] gave an IC50 of 0.085 µM. With `CCN(CC)Cc1cnn(-c2ccc(-c3ccc(F)cc3)cc2)c1-c1ccoc1` [Example 662, Diethyl-[1-(4′-fluorobiphenyl-4-yl)-5-furan-3-yl-1H-pyrazol-4-ylmethyl]amine] the IC50 was 0.078 µM. Compound `Fc1ccc(-c2ccc(-n3ncc(CNC4CC4)c3-c3ccco3)cc2)cc1` [Example 582] has an IC50 of 0.017 µM. Work on `CCCCNCc1cnn(-c2ccc(-c3ccc(F)cc3)cc2)c1-c1ccco1` [Example 677, Butyl-[1-(4′-fluorobiphenyl-4-yl)-5-furan-2-yl-1H-pyrazol-4-ylmethyl]amine] yielded an IC50 of 0.13 µM. “{[1-(4′-Fluorobiphenyl-4-yl)-5-furan-2-yl-1H-pyrazol-4-ylmethyl]methylamino}phenylpropan-1-ol [Example 587]” was tested, and the IC50 was 0.019 µM. For `CC(C)(C)OC(=O)NC1CCN(Cc2cnn(-c3ccc(-c4ccc5c(c4)OCO5)cc3)c2-c2ccco2)CC1` [Example 611, tert-Butyl {1-[1-(4-benzo-1,3-dioxol-5-ylphenyl)-5-furan-2-yl-1H-pyrazol-4-ylmethyl]piperidin-4-yl}carbamate], the IC50 was 0.031 µM. Work on `CCN(CC)Cc1cnn(-c2ccc(-c3ccc(F)cc3)cc2)c1-c1cccc(OC)c1` [Example 676, Diethyl-[1-(4′-fluorobiphenyl-4-yl)-5-(3-methoxyphenyl)-1H-pyrazol-4-ylmethyl]amine] yielded an IC50 of 0.13 µM. For `COc1ccc(-c2ccc(-n3ncc(CNCc4ccncc4)c3-c3ccco3)cc2)cc1` [Example 615, [5-Furan-2-yl-1-(4′-methoxybiphenyl-4-yl)-1H-pyrazol-4-ylmethyl]pyridin-4-ylmethylamine], the IC50 was 0.032 µM. Compound `Fc1ccc(-c2ccc(-n3ncc(CN4CCN(CCN5CCCC5)CC4)c3-c3cccc(Cl)c3)cc2)cc1` [Example 703, 1-[5-(3-Chlorophenyl)-1-(4′-fluorobiphenyl-4-yl)-1H-pyrazol-4-ylmethyl]-4-(2-pyrrolidin-1-ylethyl)piperazine] has an IC50 of 0.48 µM. `CN1CCN(Cc2cnn(-c3ccc(-c4ccc(F)cc4)cc3)c2-c2c(F)cccc2F)CC1` [Example 573, 1-[5-(2,6-Difluorophenyl)-1-(4′-fluorobiphenyl-4-yl)-1H-pyrazol-4-ylmethyl]-4-methylpiperazine] gave an IC50 of 0.013 µM. For `COc1ccc(-c2ccc(-n3ncc(CN(Cc4nccn4C)Cc4nccn4C)c3-c3ccco3)cc2)cc1` [Example 700, [5-Furan-2-yl-1-(4′-methoxybiphenyl-4-yl)-1H-pyrazol-4-ylmethyl]bis-(1-methyl-1H-imidazol-2-ylmethyl)amine], the IC50 was 0.45 µM. In the case of `Fc1ccc(-c2ccc(-n3ncc(CN4CCN(CCc5ccc(F)cc5F)CC4)c3-c3cccc(Cl)c3)cc2)cc1` [Example 683, 1-[5-(3-Chlorophenyl)-1-(4′-fluorobiphenyl-4-yl)-1H-pyrazol-4-ylmethyl]-4-[2-(2,4-difluorophenyl)ethyl]piperazine], the IC50 is reported as 0.19 µM. In the case of `O=C1CN(Cc2cnn(-c3ccc(-c4ccc5c(c4)OCO5)cc3)c2-c2ccco2)CCN1` [Example 612, 4-[1-(4-Benzo-1,3-dioxol-5-ylphenyl)-5-furan-2-yl-1H-pyrazol-4-ylmethyl]piperazin-2-one], the IC50 is reported as 0.031 µM. In the case of `CCN1CCN(Cc2cnn(-c3ccc(-c4ccc(F)cc4)cc3)c2-c2c(C)noc2C)CC1` [Example 672, 1-[5-(3,5-Dimethylisoxazol-4-yl)-1-(4′-fluorobiphenyl-4-yl)-1H-pyrazol-4-ylmethyl]-4-ethylpiperazine], the IC50 is reported as 0.1 µM. With `COc1cc2c(cc1OC)CN(Cc1cnn(-c3ccc(-c4ccc(F)cc4)cc3)c1-c1ccco1)CC2` [Example 697, 2-[1-(4′-Fluorobiphenyl-4-yl)-5-furan-2-yl-1H-pyrazol-4-ylmethyl]-6,7-dimethoxy-1,2,3,4-tetrahydroisoquinoline] the IC50 was 0.35 µM. `CN(CCc1ccccc1)Cc1cnn(-c2ccc(-c3ccc(F)cc3)cc2)c1-c1ccco1` [Example 579, [1-(4′-Fluorobiphenyl-4-yl)-5-furan-2-yl-1H-pyrazol-4-ylmethyl]methylphenethylamine] was tested, and the IC50 was 0.016 µM. With `COc1cccc(-c2c(CN3CCC(N4CCCC4)CC3)cnn2-c2ccc(-c3ccc(F)cc3)cc2)c1` [Example 698, 1-[1-(4′-Fluorobiphenyl-4-yl)-5-(3-methoxyphenyl)-1H-pyrazol-4-ylmethyl]-4-pyrrolidin-1-ylpiperidine] the IC50 was 0.42 µM. `COCCNCc1cnn(-c2ccc(-c3ccc(F)cc3)cc2)c1-c1ccco1` [Example 603, [1-(4′-Fluorobiphenyl-4-yl)-5-furan-2-yl-1H-pyrazol-4-ylmethyl]-(2-methoxyethyl)amine] gave an IC50 of 0.026 µM. Work on `CCC(CO)NCc1cnn(-c2ccc(-c3ccc(F)cc3)cc2)c1-c1ccco1` (stereo not drawn) [Example 642, 2-{[1-(4′-Fluorobiphenyl-4-yl)-5-furan-2-yl-1H-pyrazol-4-ylmethyl]amino}butan-1-ol] yielded an IC50 of 0.047 µM. For `CC(C)CCNCc1cnn(-c2ccc(-c3ccc(F)cc3)cc2)c1-c1ccco1` [Example 628, [1-(4′-Fluorobiphenyl-4-yl)-5-furan-2-yl-1H-pyrazol-4-ylmethyl]-(3-methylbutyl)amine], the IC50 was 0.036 µM. `COCCCNCc1cnn(-c2ccc(-c3ccc(F)cc3)cc2)c1-c1ccco1` [Example 580, [1-(4′-Fluorobiphenyl-4-yl)-5-furan-2-yl-1H-pyrazol-4-ylmethyl]-(3-methoxypropyl)amine] gave an IC50 of 0.016 µM. Compound `CN1CCN(Cc2cnn(-c3ccc(-c4ccc(F)cc4)cc3)c2-c2ccncc2)CC1` [Example 629, 1-[1-(4′-Fluorobiphenyl-4-yl)-5-pyridin-4-yl-1H-pyrazol-4-ylmethyl]-4-methylpiperazine] has an IC50 of 0.037 µM.
